This is an account of results in patent publication US20250368633A1, “AZEPINE FUSED RING COMPOUND AS RIPK1 INHIBITOR AND USE THEREOF” (ARTIVILA BIOPHARMA, priority 2022, published 2025).

The target in one experiment is T1, RIPK1 kinase (Homo sapiens, UniProt Q13546).
T1 construct: purchased Promega VA7593
T1 sequence (Q13546 1-671): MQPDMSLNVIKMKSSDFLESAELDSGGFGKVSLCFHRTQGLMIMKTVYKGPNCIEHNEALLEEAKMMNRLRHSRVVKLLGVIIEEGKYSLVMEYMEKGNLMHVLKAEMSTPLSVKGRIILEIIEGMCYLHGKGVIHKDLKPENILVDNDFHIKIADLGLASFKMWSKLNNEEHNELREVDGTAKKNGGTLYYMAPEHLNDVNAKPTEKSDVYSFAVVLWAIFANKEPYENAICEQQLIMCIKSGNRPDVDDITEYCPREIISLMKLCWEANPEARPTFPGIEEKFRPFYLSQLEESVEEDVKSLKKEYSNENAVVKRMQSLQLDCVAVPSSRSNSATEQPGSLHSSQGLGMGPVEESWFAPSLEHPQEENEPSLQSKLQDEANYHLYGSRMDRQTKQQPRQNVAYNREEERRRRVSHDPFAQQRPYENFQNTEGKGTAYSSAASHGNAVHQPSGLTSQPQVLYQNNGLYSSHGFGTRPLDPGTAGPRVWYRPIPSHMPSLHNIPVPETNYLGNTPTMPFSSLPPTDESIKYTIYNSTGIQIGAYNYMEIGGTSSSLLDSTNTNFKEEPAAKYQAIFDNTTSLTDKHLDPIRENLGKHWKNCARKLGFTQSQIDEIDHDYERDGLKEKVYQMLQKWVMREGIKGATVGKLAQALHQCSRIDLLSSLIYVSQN
The experiment can be described thus: In vitro RIPK1 kinase activity assay (ADP-Glo), inhibition by compounds at 1 μM. It counts as biochemical. Conditions: compound 1 μM; ATP 10 μM; MBP substrate 100 μg/mL; read-out: RIPK1 kinase activity inhibition rate range. In short, it runs like this:
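Read by ADP-Glo chemiluminescence as percent inhibition: RIPK1 kinase, 15-min room-temperature compound preincubation, then 1-h reaction with MBP (100 μg/mL final) and ATP (10 μM final). Enzyme level was set by titration.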

The next experiment relates to U937 cells. The experiment can be described thus: Inhibition rate of compound (1 μM) on necroptosis of U937 cells (TSZ-induced, CellTiter-Glo). Particulars: TSZ (hTNF-α, SM-164, Z-VAD-FMK) 20 hours. The format is cell-based. In short, it runs like this: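 Percent inhibition comes from ATP luminescence (CellTiter-Glo), referenced to wells without TSZ and wells with TSZ alone. The compound was added to U937 cells 15 min ahead of a TNF-α/SM-164/Z-VAD-FMK mix, followed by 20 h culture at 37° C, 5% CO2.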

For the molecule `CN1C(=O)[C@@H](NC(=O)C(=O)NCCc2ccccc2)COc2ccc(C#CC3CCN(CC#N)CC3)cc21` [Example 74, (S)—N^1-(7-((1-(cyanomethyl)piperidin-4-yl)ethynyl)-5-methyl-4-oxo-2,3,4,5-tetrahydrobenzo[b][1, 4]oxazepin-3-yl)-N^2-phenethyloxalamide], the inhibition at 1 µM on RIPK1 kinase was in the range of 50 to 74%. In addition, the “Inhibition rate range of compounds (1 μM) on U937 cell necroptosis” value (“Inhibition rate range of compounds” below) with U937 cells was “A (A: ≥90%)”.

With `CN1C(=O)[C@@H](NC(=O)C(=O)NCCc2ccccc2)COc2ccc(C#CC3COC3)cc21` [Example 76, (S)—N^1-(5-methyl-7-(oxetan-3-ylethynyl)-4-oxo-2,3,4,5-tetrahydrobenzo[b][1,4]oxazepin-3-yl)-N^2-phenethyloxalamide], the inhibition at 1 µM on RIPK1 kinase lay within 50 to 74%. Besides, in the experiment with U937 cells, the “Inhibition rate range of compounds” value is on record as “A (A: ≥90%)”.

`CN1C(=O)[C@H](NC(=O)C(=O)NCCc2ccccc2)COc2ccc(C#CC3(O)COC3)cc21` [Example 77, (R)—N^1-(7-((3-hydroxyoxetan-3-yl)ethynyl)-5-methyl-4-oxo-2,3,4,5-tetrahydrobenzo[b][1,4]oxazepin-3-yl)-N^2-phenethyloxalamide]: the inhibition at 1 µM on RIPK1 kinase was 50 to 74%. Moreover, the “Inhibition rate range of compounds” value in the experiment with U937 cells is given as “A (A: ≥90%)”.

As to `COC1(C#Cc2ccc3c(c2)N(C)C(=O)[C@@H](NC(=O)C(=O)NCCc2ccccc2)CO3)COC1` [Example 78, (S)—N^1-(7-((3-methoxyoxetan-3-yl)ethynyl)-5-methyl-4-oxo-2,3,4,5-tetrahydrobenzo[b][1,4]oxazepin-3-yl)-N^2-phenethyloxalamide], at RIPK1 kinase, the inhibition at 1 µM fell in the range of 50 to 74%. The “Inhibition rate range of compounds” value in the experiment on U937 cells is reported as “A (A: ≥90%)”.

On to `CN1C(=O)[C@@H](NC(=O)C(=O)NCCc2ccccc2)COc2ccc(C#CCC3(O)COC3)cc21` [Example 79, (S)—N^1-(7-(3-(3-hydroxyoxetan-3-yl)prop-1-yn-1-yl)-5-methyl-4-oxo-2,3,4,5-tetrahydrobenzo[b][1,4]oxazepin-3-yl)-N^2-phenethyloxalamide], for which, at RIPK1 kinase, the inhibition at 1 µM was 50 to 74%. In addition, the “Inhibition rate range of compounds” value in the experiment on U937 cells is listed as “A (A: ≥90%)”.

As to `CN1C(=O)[C@@H](NC(=O)C(=O)NCCc2ccccc2)COc2ccc(C#CC3(O)CCOC3)cc21` (stereo partly drawn) [Example 80, N^1-((3S)-7-((3-hydroxytetrahydrofuran-3-yl)ethynyl)-5-methyl-4-oxo-2,3,4,5-tetrahydrobenzo[b][1,4]oxazepin-3-yl)-N^2-phenethyloxalamide], the inhibition at 1 µM at RIPK1 kinase is no less than 75%. For the same molecule, the “Inhibition rate range of compounds” value in the experiment with U937 cells is on record as “A (A: ≥90%)”.

Take `CN1C(=O)[C@@H](NC(=O)C(=O)NCCc2ccccc2)COc2ccc(C#CCN3CCC(O)CC3)cc21` [Example 81, (S)—N^1-(7-(3-(4-hydroxypiperidin-1-yl)prop-1-yn-1-yl)-5-methyl-4-oxo-2,3,4,5-tetrahydrobenzo[b][1,4]oxazepin-3-yl)-N^2-phenethyloxalamide]: the inhibition at 1 µM at RIPK1 kinase was no less than 75%. In addition, the “Inhibition rate range of compounds” value with U937 cells is given as “A (A: ≥90%)”.

Regarding `CN1C(=O)[C@@H](NC(=O)C(=O)NCCc2ccccc2)COc2ccc(C#CCN3C(=O)CCC3=O)cc21` [Example 84, (S)—N^1-(7-(3-(2,5-dioxopyrrolidin-1-yl)prop-1-yn-1-yl)-5-methyl-4-oxo-2,3,4,5-tetrahydrobenzo[b][1,4]oxazepin-3-yl)-N^2-phenethyloxalamide], at RIPK1 kinase, the inhibition at 1 µM was no less than 75%. Also, the “Inhibition rate range of compounds” value with U937 cells is on record as “A (A: ≥90%)”.

As for `CN1C(=O)[C@@H](NC(=O)C(=O)NCCc2ccccc2)COc2ccc(C#CCN3CCNC(=O)C3)cc21` [Example 85, (S)—N^1-(5-methyl-4-oxo-7-(3-(3-oxopiperazin-1-yl)prop-1-yn-1-yl)-2,3,4,5-tetrahydrobenzo[b][1, 4]oxazepin-3-yl)-N^2-phenethyloxalamide], the inhibition at 1 µM on RIPK1 kinase was no less than 75%. The “Inhibition rate range of compounds” value with U937 cells is “B (B: 50-89%)”.

Take `CN1C(=O)[C@@H](NC(=O)C(=O)NCCc2ccccc2)COc2ccc(C#CCNC(=O)OC(C)(C)C)cc21` [Example 86, tert-butyl (S)-(3-(5-methyl-4-oxo-3-(2-oxo-2-(phenethylamino)acetamido)-2,3,4,5-tetrahydrobenzo[b][1,4]oxazepin-7-yl)prop-2-yn-1-yl)carbamate]: at RIPK1 kinase, the inhibition at 1 µM lay in the range of 50 to 74%. Moreover, the “Inhibition rate range of compounds” value in the experiment on U937 cells was “A (A: ≥90%)”.

Consider `CN1C(=O)[C@@H](NC(=O)C(=O)NCCc2ccccc2)COc2ccc(C#CCNC(=O)CO)cc21` [Example 88, (S)—N^1-(7-(3-(2-hydroxyacetamido)prop-1-yn-1-yl)-5-methyl-4-oxo-2,3,4,5-tetrahydrobenzo[b][1, 4]oxazepin-3-yl)-N^2-phenethyloxalamide], for which, at RIPK1 kinase, the inhibition at 1 µM is no less than 75%. For the same molecule, the “Inhibition rate range of compounds” value in the experiment with U937 cells is reported as “A (A: ≥90%)”.

As to `C=CC(=O)NCC#Cc1ccc2c(c1)N(C)C(=O)[C@@H](NC(=O)C(=O)NCCc1ccccc1)CO2` [Example 89, (S)—N^1-(7-(3-acrylamidoprop-1-yn-1-yl)-5-methyl-4-oxo-2,3,4,5-tetrahydrobenzo[b][1,4]oxazepin-3-yl)-N^2-phenethyloxalamide], the inhibition at 1 µM at RIPK1 kinase was 50 to 74%. Further, the “Inhibition rate range of compounds” value in the experiment with U937 cells was “A (A: ≥90%)”.

`CN1C(=O)[C@@H](NC(=O)C(=O)NCCc2ccccc2)COc2ccc(C#CC3CN(C=O)C3)cc21` [Example 91, (S)—N^1-(7-((1-formylazetidin-3-yl)ethynyl)-5-methyl-4-oxo-2,3,4,5-tetrahydrobenzo[b][1,4]oxazepin-3-yl)-N^2-phenethyloxalamide]: the inhibition at 1 µM on RIPK1 kinase was no less than 75%. Besides, the “Inhibition rate range of compounds” value in the experiment on U937 cells was “A (A: ≥90%)”.

As for `CN1C(=O)[C@@H](NC(=O)C(=O)NCCc2ccccc2)COc2ccc(C#CC3(O)CN(C=O)C3)cc21` [Example 92, (S)—N^1-(7-((1-formyl-3-hydroxyazetidin-3-yl)ethynyl)-5-methyl-4-oxo-2,3,4,5-tetrahydrobenzo[b][1,4]oxazepin-3-yl)-N^2-phenethyloxalamide], the inhibition at 1 µM on RIPK1 kinase lay within 50 to 74%. In addition, the “Inhibition rate range of compounds” value with U937 cells was “A (A: ≥90%)”.

Consider `CCOC(=O)CCC#Cc1ccc2c(c1)N(C)C(=O)[C@@H](NC(=O)C(=O)NCCc1ccccc1)CO2` [Example 94, ethyl (S)-5-(5-methyl-4-oxo-3-(2-oxo-2-(phenethylamino)acetamido)-2,3,4,5-tetrahydrobenzo[b][1,4]oxazepin-7-yl) pent-4-ynoate], for which the inhibition at 1 µM at RIPK1 kinase is no less than 75%. For the same molecule, the “Inhibition rate range of compounds” value in the experiment with U937 cells is “B (B: 50-89%)”.

For the molecule `CN1C(=O)[C@@H](NC(=O)C(=O)NCc2ccccc2)COc2ccc(C#CCn3ccnc3)cc21` [Example 104, (S)—N^1-(7-(3-(1H-imidazol-1-yl)prop-1-yn-1-yl)-5-methyl-4-oxo-2,3,4,5-tetrahydrobenzo[b][1,4]oxazepin-3-yl)-N^2-benzyloxalamide], the inhibition at 1 µM at RIPK1 kinase was no less than 75%. The “Inhibition rate range of compounds” value in the experiment on U937 cells is “A (A: ≥90%)”.

For `CN1C(=O)[C@@H](NC(=O)C(=O)NCc2ccccc2)COc2ccc(C#CCN3CCOCC3)cc21` [Example 106, (S)—N^1-benzyl-N^2-(5-methyl-7-(3-morpholinoprop-1-yn-1-yl)-4-oxo-2,3,4,5-tetrahydrobenzo[b][1, 4]oxazepin-3-yl)oxalamide], on RIPK1 kinase, the inhibition at 1 µM was no less than 75%. Moreover, the “Inhibition rate range of compounds” value with U937 cells is given as “B (B: 50-89%)”.

Turning to `CN1C(=O)[C@@H](NC(=O)C(=O)NCc2ccccc2)COc2ccc(C#CCN3CCNC(=O)C3)cc21` [Example 107, (S)—N^1-benzyl-N^2-(5-methyl-4-oxo-7-(3-(3-oxopiperazin-1-yl)prop-1-yn-1-yl)-2,3,4,5-tetrahydrobenzo[b][1,4]oxazepin-3-yl)oxalamide], at RIPK1 kinase, the inhibition at 1 µM lay in the range of 50 to 74%. Also, in the experiment with U937 cells, the “Inhibition rate range of compounds” value is reported as “A (A: ≥90%)”.

As for `CN1C(=O)[C@H](NC(=O)C(=O)NCCc2cccc(F)c2)COc2ccc(C#CCCO)cc21` [Example 109, (R)—N^1-(3-fluorophenethyl)-N^2-(7-(4-hydroxybut-1-yn-1-yl)-5-methyl-4-oxo-2,3,4,5-tetrahydrobenzo[b][1,4]oxazepin-3-yl)oxalamide], the inhibition at 1 µM at RIPK1 kinase is no less than 75%. Moreover, the “Inhibition rate range of compounds” value in the experiment on U937 cells is “A (A: ≥90%)”.

In the case of `CN1C(=O)[C@@H](NC(=O)C(=O)NCCc2cccc(F)c2)COc2ccc(C#CC3(O)COC3)cc21` [Example 110, (S)—N^1-(3-fluorophenethyl)-N^2-(7-((3-hydroxyoxetan-3-yl)ethynyl)-5-methyl-4-oxo-2,3,4,5-tetrahydrobenzo[b][1,4]oxazepin-3-yl)oxalamide], on RIPK1 kinase, the inhibition at 1 µM was no less than 75%. For the same molecule, the “Inhibition rate range of compounds” value in the experiment on U937 cells is recorded as “A (A: ≥90%)”.
